For this assay, the target named is T1, H^+ +K^+ ATPase (Sus scrofa, UniProt P19156).
T1 construct: prepared from porcine stomach; from tissue; host or cells: porcine stomach
Kind of assay: H+ +K+ ATPase inhibition (inorganic phosphoric acid release). The format is biochemical. The conditions noted are these: enzyme prepared from porcine stomach; 30 min with compound at room temperature, pH 6.1; then 30 min at 37° C., pH 7.4, 20 mM KCl. The protocol:
H^+ +K^+ ATPase (adenosine triphosphatase) (amount of protein: 10 μg) prepared from porcine stomach was added to a Pipes-TRIS [i.e. 2-amino-2-(hydroxymethyl)-1,3-propanediol] buffer solution (pH 6.1) containing 2 mM of piperazine N,N'-bis(2-ethanesulfonic acid), and the mixture was let stand at room temperature. A test compound was dissolved in dimethyl formamide, and the mixture was added to said H^+ +K^+ ATPase buffer solution so that the final concentration should be 1% and let stand for reaction for 30 minutes at room temperature. Then a 75 mM Pipes-TRIS buffer (1 ml, pH 7.4) (containing 4 mM MgCl2, 4 mM Na2 ATP, and 20 mM KCl) and a 75 mM Pipes-TRIS buffer (1 ml, pH 7.4) (containing 4 mM MgCl2, and 4 mM Na2 ATP) were added to the solution individually to make two kinds of samples and these samples were presented for reaction for 30 minutes at 37° C. 40% Trichloroacetic acid (0.3 ml) was added to each sample to stop the reaction. The solution were subjected to centrifugal separation (3000 rpm) for 10 minutes, and the supernatant was taken off, then the formed inorganic phosphoric acid was measured by Fiske and Subbarow's method [J. Biol. Chem. vol. 66, 375 (1925)]. The value of deducting the amount of inorganic phosphoric acid taken from the Pipes-Tris buffer not containing 20 mM KCl from that taken from the Pipes-Tris buffer containing 20 mM KCl was calculated in terms of unit protein and unit hour to be defined as an activity index of enzyme. Inhibition level (%) in doses of administration was estimated by control values and activity indices of enzyme, and from the obtained inhibition level (%), IC50 (dose of administration of compounds to inhibit in 50%) was obtained.

T1 sequence (P19156 2-1034 limits assumed): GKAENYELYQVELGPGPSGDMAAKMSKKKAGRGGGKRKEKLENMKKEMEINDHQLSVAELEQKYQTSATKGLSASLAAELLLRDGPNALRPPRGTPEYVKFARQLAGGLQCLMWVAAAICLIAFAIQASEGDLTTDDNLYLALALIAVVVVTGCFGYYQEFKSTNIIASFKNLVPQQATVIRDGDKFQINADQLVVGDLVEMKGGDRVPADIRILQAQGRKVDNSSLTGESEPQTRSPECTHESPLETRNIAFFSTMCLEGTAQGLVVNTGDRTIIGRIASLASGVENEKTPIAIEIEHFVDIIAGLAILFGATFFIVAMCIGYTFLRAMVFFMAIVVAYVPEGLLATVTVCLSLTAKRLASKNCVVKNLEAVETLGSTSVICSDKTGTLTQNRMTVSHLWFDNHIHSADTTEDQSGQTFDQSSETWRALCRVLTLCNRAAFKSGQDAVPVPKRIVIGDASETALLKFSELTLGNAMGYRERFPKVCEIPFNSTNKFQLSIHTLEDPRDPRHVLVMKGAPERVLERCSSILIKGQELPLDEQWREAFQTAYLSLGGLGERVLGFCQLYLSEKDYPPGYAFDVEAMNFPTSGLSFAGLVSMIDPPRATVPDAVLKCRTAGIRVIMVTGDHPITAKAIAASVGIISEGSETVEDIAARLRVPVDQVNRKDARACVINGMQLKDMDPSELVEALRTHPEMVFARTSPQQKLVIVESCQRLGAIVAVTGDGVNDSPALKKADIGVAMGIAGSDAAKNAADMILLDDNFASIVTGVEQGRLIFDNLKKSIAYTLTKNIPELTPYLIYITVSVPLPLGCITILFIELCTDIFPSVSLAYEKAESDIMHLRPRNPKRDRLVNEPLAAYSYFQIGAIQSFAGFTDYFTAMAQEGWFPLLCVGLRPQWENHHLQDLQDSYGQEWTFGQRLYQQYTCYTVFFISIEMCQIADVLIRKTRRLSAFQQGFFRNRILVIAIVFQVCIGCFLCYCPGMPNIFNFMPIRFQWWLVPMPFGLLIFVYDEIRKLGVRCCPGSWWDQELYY
T1 sequence (P18434 whole entry partner): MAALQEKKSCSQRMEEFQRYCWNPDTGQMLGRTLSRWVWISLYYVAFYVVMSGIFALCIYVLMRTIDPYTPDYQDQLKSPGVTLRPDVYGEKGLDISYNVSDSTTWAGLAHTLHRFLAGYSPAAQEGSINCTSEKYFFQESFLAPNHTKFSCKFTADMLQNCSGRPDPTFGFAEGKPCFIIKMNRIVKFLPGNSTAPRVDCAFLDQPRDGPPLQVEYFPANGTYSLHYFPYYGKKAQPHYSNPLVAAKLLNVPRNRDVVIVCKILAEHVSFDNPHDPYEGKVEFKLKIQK

In general, IC50 refers to the concentration that gives 50% inhibition. For `CCN1CC=C(C(F)(F)F)c2cccc(C[S+]([O-])c3nc4ccccc4[nH]3)c21` (stereo not shown) [Test compound No. 72, 1-ethyl-8-(2-benzimidazolyl)sulfinylmethyl-4-trifluoromethyl-1,2-dihydroquinoline], the IC50 turned out to be 3.3 µM.

These data come from patent publication US4963566A, “Benzimidazolyl-sulfinyl-tetrahydroquinolines” (Otsuka Pharmaceutical Co., Ltd., priority 1986, dated 1990).
